Results published in PubChem BioAssay (NCI).
Where “and” joins values, the source holds several entries; their conditions need not be identical. Equal entries are not always repeated.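 Five compound concentrations were applied to cells in 96-well plates for 48 hours; endpoints were derived by simple linear interpolation of the resulting dose-response curve. At the GI50, growth is halved. TGI marks complete inhibition of growth.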

Tested on: MDA-MB-468 breast
Assay: NCI-60 cell line screen, 48 h

Row | Structure (SMILES) | GI50 | TGI
1 | CS(=O)(=O)CCN(CC#N)Cc1ccc(-c2ccc3ncnc(Nc4ccc(OCc5cccc(F)c5)c(Cl)c4)c3c2)o1 | 76.7 nM | 1090 nM
2 | O=C1Nc2ccccc2/C1=C\c1c[nH]c2ccc(Br)cc12 | 1620 nM | 3760 nM
3 | CCCN1CCN(c2ccc3nc(-c4ccc5nc(-c6ccc(C(F)(F)F)cc6)[nH]c5c4)[nH]c3c2)CC1 | 1780 nM | 3390 nM
4 | CSc1nc(N)cc(Oc2ccc(-c3nc(Nc4cccc(C(F)(F)F)c4)n[nH]3)cc2)n1 | 360 nM | 2660 nM
5 | COc1cc(C2CC(c3cccc(Nc4ccnc5cc(Cl)ccc45)c3)=NN2C=O)cc(OC)c1OC (stereo unspecified) | 293 nM | 1070 nM
6 | COc1cccc2c1C(=O)c1c(O)c3c(c(O)c1C2=O)C[C@@](O)(C(C)=O)C[C@@H]3O[C@H]1C[C@H](N)[C@H](O)[C@H](C)O1 | 71.6 nM | 221 nM
7 | N#C/C(=C/NC(=S)NCc1ccccc1)C(N)=O | > 100000 nM | > 100000 nM
8 | COc1ccc(NC(=O)Nc2ccccc2CNc2nc(Nc3ccc(OCCN4CCCC4)cc3)ncc2Cl)cc1 | 894 nM | 1720 nM
9 | Cn1cc(C2=C(Oc3ccccc3)C(=O)NC2=O)c2ccccc21 | > 25000 nM | > 25000 nM
10 | C#C[C@]1(O)CC[C@H]2[C@@H]3CC=C4c5sc(Nc6ccc(OC)nc6)nc5CC[C@]4(C)[C@H]3CC[C@@]21C | 1460 nM | 3530 nM
11 | Cc1ncc(C(=O)Nc2ccc(CN3CCN(C)CC3)c(C(F)(F)F)c2)cc1C#Cc1c(N)ncc2ccc(F)cc12 | 2820 nM | 12000 nM
12 | O=C1C=CC=C[C@@H]2C(C3OCCO3)CC[C@H]12.[C-]#[O+].[C-]#[O+].[C-]#[O+].[Fe] (stereo partly specified) | 35200 nM | > 100000 nM
13 | O=C1C(Br)=CC2C1C1C3CCC3C2(Br)C12OCCO2 (stereo unspecified) | 1370 nM | 4210 nM
14 | O=C(OCc1nc2nc(Cl)nc(N3CCOCC3)c2[nH]1)n1ccnc1 | 1850 nM | 3540 nM
15 | C[C@H](NC(=O)c1c(N)nn2cccnc12)c1cc2cccc(C#Cc3cnn(C)c3)c2c(=O)n1-c1ccccc1 | 843 nM and 1460 nM | 4550 nM and 9080 nM
16 | Cc1ccccc1N1CCN(C2=C(Cl)C(=O)c3ncccc3C2=O)CC1 | 1600 nM | 3180 nM
17 | COc1cc(-c2cc(/C=C3\C(=O)Nc4cc(Cl)ccc43)[nH]n2)cc(OC)c1OC | 3170 nM | 18200 nM
18 | CCN(CC)c1ccc(/C=N/NC(=O)c2ccc(S(C)(=O)=O)cc2)c(O)c1 | 250 nM | 1270 nM
